Activity calls are given as the source filed them. The rule behind the calls is not given here.
Experiments:
[1] = molecular target: T1, C-X-C chemokine receptor type 4 (Homo sapiens, UniProt P61073); assay: Displacement of 12G5 mAb from CXCR4 (unknown origin) expressed in CHO cells incubated for 40 mins by spectrophotometric method; assay type: cell-based
[2] = molecular target: T1, C-X-C chemokine receptor type 4; assay: Antagonist activity against CXCR4 in human SUP-T1 cells assessed as inhibition of SDF-1alpha-induced intracellular calcium mobilization by Fluo-4AM dye based fluorescence analysis; assay type: cell-based; conditions: filed as antagonist, dose 0.01-10 µM
[3] = molecular target: T1, C-X-C chemokine receptor type 4; assay: Antagonist activity against CXCR4 in human SUP-T1 cells assessed as inhibition of SDF-1alpha-induced intracellular calcium mobilization at 10 uM by Fluo-4AM dye based fluorescence analysis; assay type: cell-based; conditions: filed as antagonist
[4] = molecular target: T1, C-X-C chemokine receptor type 4; assay: Antagonist activity against CXCR4 in human SUP-T1 cells assessed as inhibition of SDF-1alpha-induced cell migration preincubated with cells for 30 mins followed by incubation with SDF-1alpha for 3 hrs by CellTiter-96 reagent based transwell assay; conditions: filed as antagonist, time 210.0 min
[5] = molecular target: T1, C-X-C chemokine receptor type 4; assay: Antagonist activity against CXCR4 in human SUP-T1 cells assessed as inhibition of SDF-1alpha-induced cell migration at 10 uM preincubated with cells for 30 mins followed by incubation with SDF-1alpha for 3 hrs by CellTiter-96 reagent based transwell assay; conditions: filed as antagonist, time 210.0 min
[6] = molecular target: T1, C-X-C chemokine receptor type 4; assay: Antagonist activity against EGFP-tagged CXCR4 (unknown origin) transfected in CHO cells assessed as inhibition of SDF-1alpha-induced receptor internalization at 0.01 to 10 uM preincubated for 10 mins followed by SDF-1alpha addition by confocal microscopy; assay type: cell-based; conditions: filed as antagonist, dose 0.01-10 µM
[7] = molecular target: T1, C-X-C chemokine receptor type 4; assay: Antagonist activity against EGFP-tagged CXCR4 (unknown origin) transfected in CHO cells assessed as inhibition of SDF-1alpha-induced receptor internalization at 10 uM preincubated for 10 mins followed by SDF-1alpha addition by confocal microscopy; assay type: cell-based; conditions: filed as antagonist
[8] = test system: Human immunodeficiency virus 1; assay: Antiviral activity against HIV-1 X4 NL4-3 infected in human PBMC assessed as inhibition of viral replication by measuring reduction in p24 antigen level at 10 uM measured after 5 days by ELISA; assay type: functional, organism-based; conditions: time 5.0 day
[9] = test system: Human immunodeficiency virus 1; assay: Antiviral activity against HIV-1 R5 Bal-6 infected in human PBMC assessed as inhibition of viral replication by measuring reduction in p24 antigen level at 10 uM measured after 5 days by ELISA; assay type: functional, organism-based; conditions: time 5.0 day
[10] = Cytotoxicity against human PBMC assessed as reduction in cell viability at 0.016 to 10 uM incubated for 5 days by CellTiter-Blue assay; assay type: toxicity, cell-based; conditions: 120 h, dose 0.016-10 µM, time 5 day
[11] = test system: C-X-C chemokine receptor type 4 (Homo sapiens), P61073 [F87A]; assay: Displacement of 12G5 mAb from CXCR4 F87A mutant (unknown origin) expressed in CHO cells at 200 nM incubated for 40 mins by spectrophotometric method; assay type: cell-based
[12] = test system: C-X-C chemokine receptor type 4 (Homo sapiens), P61073 [W94A]; assay: Displacement of 12G5 mAb from CXCR4 W94A mutant (unknown origin) expressed in CHO cells at 200 nM incubated for 40 mins by spectrophotometric method; assay type: cell-based
[13] = test system: C-X-C chemokine receptor type 4 (Homo sapiens), P61073 [N119A]; assay: Displacement of 12G5 mAb from CXCR4 N119A mutant (unknown origin) expressed in CHO cells at 200 nM incubated for 40 mins by spectrophotometric method; assay type: cell-based
[14] = test system: C-X-C chemokine receptor type 4 (Homo sapiens), P61073 [H113A]; assay: Displacement of 12G5 mAb from CXCR4 H113A mutant (unknown origin) expressed in CHO cells at 200 nM incubated for 40 mins by spectrophotometric method; assay type: cell-based
[15] = test system: C-X-C chemokine receptor type 4 (Homo sapiens), P61073 [W161A]; assay: Displacement of 12G5 mAb from CXCR4 W161A mutant (unknown origin) expressed in CHO cells at 200 nM incubated for 40 mins by spectrophotometric method; assay type: cell-based
[16] = test system: C-X-C chemokine receptor type 4 (Homo sapiens), P61073 [D193A]; assay: Displacement of 12G5 mAb from CXCR4 D193A mutant (unknown origin) expressed in CHO cells at 200 nM incubated for 40 mins by spectrophotometric method; assay type: cell-based
[17] = test system: C-X-C chemokine receptor type 4 (Homo sapiens), P61073 [W195A]; assay: Displacement of 12G5 mAb from CXCR4 W195A mutant (unknown origin) expressed in CHO cells at 200 nM incubated for 40 mins by spectrophotometric method; assay type: cell-based
[18] = test system: C-X-C chemokine receptor type 4 (Homo sapiens), P61073 [D262N]; assay: Displacement of 12G5 mAb from CXCR4 D262N mutant (unknown origin) expressed in CHO cells at 200 nM incubated for 40 mins by spectrophotometric method; assay type: cell-based
[19] = test system: C-X-C chemokine receptor type 4 (Homo sapiens), P61073 [E288A]; assay: Displacement of 12G5 mAb from CXCR4 E288A mutant (unknown origin) expressed in CHO cells at 200 nM incubated for 40 mins by spectrophotometric method; assay type: cell-based
[20] = test system: C-X-C chemokine receptor type 4 (Homo sapiens), P61073 [E288D]; assay: Displacement of 12G5 mAb from CXCR4 E288D mutant (unknown origin) expressed in CHO cells at 200 nM incubated for 40 mins by spectrophotometric method; assay type: cell-based
[21] = test system: C-X-C chemokine receptor type 4 (Homo sapiens), P61073 [Y45A]; assay: Displacement of 12G5 mAb from CXCR4 Y45A mutant (unknown origin) expressed in CHO cells at 200 nM incubated for 40 mins by spectrophotometric method; assay type: cell-based; conditions: filed as antagonist
[22] = test system: C-X-C chemokine receptor type 4 (Homo sapiens), P61073 [T117A]; assay: Displacement of 12G5 mAb from CXCR4 T117A mutant (unknown origin) expressed in CHO cells at 200 nM incubated for 40 mins by spectrophotometric method; assay type: cell-based; conditions: filed as antagonist
[23] = test system: C-X-C chemokine receptor type 4 (Homo sapiens), P61073 [D171A]; assay: Displacement of 12G5 mAb from CXCR4 D171A mutant (unknown origin) expressed in CHO cells at 200 nM incubated for 40 mins by spectrophotometric method; assay type: cell-based; conditions: filed as antagonist
[24] = test system: Human immunodeficiency virus 1; assay: Antiviral activity against HIV-1 X4 NL4-3 infected in human PBMC assessed as inhibition of viral replication by measuring reduction in p24 antigen level measured after 5 days by ELISA; assay type: functional, organism-based; conditions: Human immunodeficiency virus 1, X4 NL4-3, PBMC, 120 h
[25] = test system: Human immunodeficiency virus 1; assay: Antiviral activity against HIV-1 R5 Bal-6 infected in human PBMC assessed as inhibition of viral replication by measuring reduction in p24 antigen level at 0.1 to 10 uM measured after 5 days by ELISA; assay type: functional, organism-based; conditions: dose 0.1-10 µM, time 5.0 day

T1 sequence (P61073 whole entry): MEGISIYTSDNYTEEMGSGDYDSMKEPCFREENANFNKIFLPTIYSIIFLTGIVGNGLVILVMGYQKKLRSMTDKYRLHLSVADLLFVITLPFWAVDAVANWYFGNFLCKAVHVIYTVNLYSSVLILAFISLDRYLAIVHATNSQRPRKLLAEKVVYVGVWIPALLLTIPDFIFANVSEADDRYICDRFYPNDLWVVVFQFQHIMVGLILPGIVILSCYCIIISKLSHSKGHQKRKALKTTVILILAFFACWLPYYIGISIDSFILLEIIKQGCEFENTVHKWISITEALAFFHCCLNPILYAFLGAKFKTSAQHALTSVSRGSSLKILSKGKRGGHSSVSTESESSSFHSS
Chain of C-X-C chemokine receptor type 4 (Homo sapiens), P61073 [Y45A] (P61073 whole entry Y45A): as the sequence (P61073 whole entry) above, with Y45A counted along it
Chain of C-X-C chemokine receptor type 4 (Homo sapiens), P61073 [E288D] (P61073 whole entry E288D): as the sequence (P61073 whole entry) above, with E288D counted along it
Chain of C-X-C chemokine receptor type 4 (Homo sapiens), P61073 [W195A] (P61073 whole entry W195A): as the sequence (P61073 whole entry) above, with W195A counted along it
Chain of C-X-C chemokine receptor type 4 (Homo sapiens), P61073 [W161A] (P61073 whole entry W161A): as the sequence (P61073 whole entry) above, with W161A counted along it
Chain of C-X-C chemokine receptor type 4 (Homo sapiens), P61073 [D193A] (P61073 whole entry D193A): as the sequence (P61073 whole entry) above, with D193A counted along it
Chain of C-X-C chemokine receptor type 4 (Homo sapiens), P61073 [E288A] (P61073 whole entry E288A): as the sequence (P61073 whole entry) above, with E288A counted along it
Chain of C-X-C chemokine receptor type 4 (Homo sapiens), P61073 [T117A] (P61073 whole entry T117A): as the sequence (P61073 whole entry) above, with T117A counted along it
Chain of C-X-C chemokine receptor type 4 (Homo sapiens), P61073 [N119A] (P61073 whole entry N119A): as the sequence (P61073 whole entry) above, with N119A counted along it
Chain of C-X-C chemokine receptor type 4 (Homo sapiens), P61073 [W94A] (P61073 whole entry W94A): as the sequence (P61073 whole entry) above, with W94A counted along it
Chain of C-X-C chemokine receptor type 4 (Homo sapiens), P61073 [F87A] (P61073 whole entry F87A): as the sequence (P61073 whole entry) above, with F87A counted along it
Chain of C-X-C chemokine receptor type 4 (Homo sapiens), P61073 [D262N] (P61073 whole entry D262N): as the sequence (P61073 whole entry) above, with D262N counted along it
Chain of C-X-C chemokine receptor type 4 (Homo sapiens), P61073 [D171A] (P61073 whole entry D171A): as the sequence (P61073 whole entry) above, with D171A counted along it
Chain of C-X-C chemokine receptor type 4 (Homo sapiens), P61073 [H113A] (P61073 whole entry H113A): as the sequence (P61073 whole entry) above, with H113A counted along it

With `CC(C)C[C@@H](N)C(=O)NCC(=O)N[C@H](C)C(=O)N[C@H](CO)C(=O)N[C@H](Cc1c[nH]c2ccccc12)C(=O)N[C@H](Cc1cnc[nH]1)C(=O)N[C@H](CCCNC(=N)N)C(=O)N1CCC[C@@H]1C(=O)N[C@H](CC(=O)O)C(=O)N[C@H](CCCCN)C(=O)N[C@H](CCCCN)C(=O)N[C@H](CCCNC(=N)N)C(=O)N(CCCCCC(=O)O)[C@H](CCCCN)C(=O)N[C@H](CCCNC(=N)N)C(=O)N[C@H](CCCCN)C(=O)N[C@H](CCC(N)=O)C(=O)N[C@H](CCCNC(=N)N)C(=O)NCC(=O)N1CCC[C@@H]1C(=O)NCC(=O)N[C@H](CCCNC(=N)N)C(=O)N[C@H](C)C(=O)N[C@H](Cc1ccccc1)C(N)=O` the IC50 [1] was 43.4 nM, the inhibition [2] was “Dose-Dependent Effect” and the inhibition [3] was 100%. The inhibition [4] was “Dose-Dependent Effect”, the inhibition [5] was 100% and the inhibition [6] was “Active”. For the same compound, the inhibition [7] was 100%, the Activity [8] was “Active” and the Activity [9] was “Active”. The Activity [10] was “Non-Toxic”, the inhibition [11] was “inactive” and the inhibition [12] was “inactive”. For the same compound, the inhibition [13] was “inactive”, the inhibition [14] was “inactive” and the inhibition [15] was “inactive”. The inhibition [16] was “inactive”, the inhibition [17] was “inactive” and the inhibition [18] was “inactive”. The inhibition [19] was “inactive”, the inhibition [20] was “inactive” and the inhibition [21] was “Active”. For the same compound, the inhibition [22] was “Active” and the inhibition [23] was “Active”.
In the case of `CC(C)C[C@@H](N)C(=O)NCC(=O)N[C@H](C)C(=O)N[C@H](CO)C(=O)N[C@H](Cc1c[nH]c2ccccc12)C(=O)N[C@H](Cc1cnc[nH]1)C(=O)N[C@H](CCCNC(=N)N)C(=O)N1CCC[C@@H]1C(=O)N[C@H](CC(=O)O)C(=O)N[C@H](CCCCN)C(=O)N[C@H](CCCCN)C(=O)N[C@H](CCCNC(=N)N)C(=O)N(CCCCCC(=O)O)[C@H](CCCCN[C@@H](CS)C(=O)N[C@@H](C(=O)N[C@H](CCCNC(=N)N)C(=O)N1CCC[C@@H]1C(=O)N[C@H](CC(N)=O)C(=O)N[C@H](CC(N)=O)C(=O)N[C@H](CC(N)=O)C(=O)N[C@@H](C(=O)N[C@H](CCCCN)C(=O)N[C@H](CCCNC(=N)N)C(N)=O)[C@@H](C)O)[C@@H](C)O)C(N)=O`, the IC50 [1] is reported as 26.8 nM, the Activity [8] is reported as “Active” and the IC50 [24] is reported as 10900 nM. For the same compound, the Activity [25] was “inactive” and the Activity [10] was “Non-Toxic”.

From ChEMBL document CHEMBL5247608, “HIV-1 gp120-CXCR4 recognition probed with synthetic nanomolar affinity D-peptides containing fragments of gp120 V3 loop” (Eur J Med Chem, 2022)
